# Source: patent US4420481A, “Use of piperazine compounds as immunopotentiating agents” (Mitsuitoatsu Chemicals Inc., priority 1980, dated 1983)
# Where a name gives a salt, the structure may show the parent alone.
# Columns and labels:
# EL-4 leukemic cells = assay: Test 3: In-Vitro Test of Inhibition of Growth of Cancer Cell by Macrophage; type: cell-based
# Protocol: The results of the test of the action of the effective ingredient of the present invention on the macrophage will now be described with reference to the following Test 3. More specifically, the separated macrophage and EL-4 leukemic cell were mixed and cultured, and ^3 H-thymidine was added to a culture medium and the quantity of ^3 H-thymidine incorporated into the EL-4 cell was determined to examine the activity of the macrophage. When the macrophage is activated by administration of the effective ingredient of the present invention, inhibition of the growth of EL-4 cell, that is, phagocytosis of the cancer cell by the macrophage, is observed. Accordingly, if the take-in amount of ^3 H-thymidine is measured and this amount is reduced, it is confirmed that the macrophage has been activated. […] The dose was 8 mg per Kg of the body weight. To the control group, a physiological saline solution was similarly administered. After passage of 4 days, exuded abdominal cells were collected and deposited on a plastic Petri dish to collect microphages. Then, 1×10^6 of so obtained macrophages and 1×10^5 of EL-4 leukemic cells of C57 BL/6J mouse were mixed with cultured in an RPM1 1640 culture medium to which 10% of bovine embryo serum was added (at 37° C. in the presence of 5% of CO2) for 24 hours. Then, 0.1μ Ci of ^3 H-thymidine was added and culturing was further conducted for 16 hours. Cells were collected on a filter paper from the culture medium and the amount of ^3 H-thymidine taken in was determined by a liquid scintillation counter. […] For comparison, the test was similarly carried out by using Levamisol hydrochloride. Results
# delayed hypersensitivity = assay: Test 1: Test of Reinforcement of Delayed Hypersensitivity; type: in vivo, ICR male mice; settings: mouse, in vivo
# Description: Various test systems using animals have been proposed for determining the immunopotensiative action. Results of the test of reinforcement of the delayed hypersensitivity, which is a typical test among these tests, will now be described.
# This system was used for the test of reinforcement of the delayed hypersensitivity.
# One groups of eight ICR male mice, each having a body weight of about 30 g, were used for the test.
# Sensitization was effected by coating a 7% solution of picryl chloride in a 4/1 mixture of olive oil and acetone on the shaved abdomen of the mouse.
# Simultaneously with sensitization, a solution or suspension of the compound of the present invention in a 0.2% solution of carboxymethyl cellulose in a physiological saline solution was orally administered to the mouse at a dose of 50 mg per Kg of the body weight. To the control group, a 0.2% carboxymethyl cellulose solution in a physiological saline solution was similarly administered.
# The delayed hypersensitivity was challenged 7 days after sensitization by gripping the ear of the mouse by a forceps wrapped with a felt impregnated with a 1% solution of picryl chloride in olive oil and coating the ear with the solution. The thickness of the ear was measured before challenging and 24 hours after challenging and the ratio of increase of the thickness (average value of both the ears in eight mice±standard deviation) was obtained as shown in Table 1.
# For comparison, the test was similarly carried out by using Levamisol hydrochloride, and the obtained results are shown in Table 1. F.t tests were carried out. The group in which the test result was significant at a level of P<0.05 was marked by *, and the group in which the test result was significant at a level of P<0.01 ws marked by **.
# Sarcoma 180 [1] = assay: Test 4: Test of Antitumor Effect to Sarcoma 180 by Oral Administration; type: in vivo, ICR female mice; settings: for D: average diameter of tumor: 100 mg/Kg oral once a day, 10 days
# Protocol: To the control group, a physiological saline solution was similarly administered. The dose of the compound was 100 mg per Kg of the body weight. The diameter D (mm) of the tumor was measured, and the average value and the number N of the living mice were determined to obtain results shown in Table 4.
# Sarcoma 180 [2] = assay: Test 5: Test of Carcinostatic Effect to Sarcoma 180 by Subcutaneous Administration; type: in vivo, ICR female mice; settings: 20 mg/Kg subcutaneous
# Protocol: To the control group, a physiological saline solution was similarly administered. […] The diameter D (mm) of the tumor was measured, and the average value and the number N of the living mice were determined to obtain results shown in Table 4.
# adjuvant arthritis = assay: Test 2: Adjuvant Arthritis Test; type: in vivo, SD male rats; settings: rat, 5 mg/Kg subcutaneous, 9 times, left hind leg, * P<0.05, ** P<0.01
smiles,measurement,setting,value
"c1ccc([C@H]2CN3CCSC3=N2)cc1 [Levamisole.hydrochloride, reference compound]",activation of macrophage / phagocytosis of cancer cells (in words),EL-4 leukemic cells; 8 mg/Kg intraperitoneal,hardly exhibits such action
same,inhibition of take-in of 3H-thymidine by EL-4 leukemic cells (in words),EL-4 leukemic cells; 8 mg/Kg intraperitoneal,does not exhibit such action
same,Take-In Ratio of 3H-thymidine (average value),"EL-4 leukemic cells; 8 mg/Kg intraperitoneal to mice, macrophages collected after 4 days, with EL-4 cells, control 80.2",49.0%
same,Ratio of Increase of Ear Thickness (average value ± Standard Variation),delayed hypersensitivity,35.6 ± 2.4%
same,N: number of living mice,"Sarcoma 180 [1]; 0 weeks, 100 mg/Kg oral, control 6",6
same,carcinostatic action (in words),"Sarcoma 180 [1]; 100 mg/Kg oral, repeated",no substantial carcinostatic action was observed
same,D: average diameter of tumor,"Sarcoma 180 [1]; 2 weeks, control 10.6",10.2 mm
same,N: number of living mice,"Sarcoma 180 [1]; 2 weeks, 100 mg/Kg oral, control 6",6
same,D: average diameter of tumor,"Sarcoma 180 [1]; 4 weeks, control 15.2",16.2 mm
same,N: number of living mice,"Sarcoma 180 [1]; 4 weeks, 100 mg/Kg oral, control 6",6
same,D: average diameter of tumor,"Sarcoma 180 [1]; 6 weeks, control 22.4",20.7 mm
same,N: number of living mice,"Sarcoma 180 [1]; 6 weeks, 100 mg/Kg oral, control 6",6
same,D: average diameter of tumor,"Sarcoma 180 [1]; 8 weeks, control 31.5",29.6 mm
same,N: number of living mice,"Sarcoma 180 [1]; 8 weeks, 100 mg/Kg oral, control 5",6
same,D: average diameter of tumor,"Sarcoma 180 [1]; 10 weeks, control 37.6",28.1 mm
same,N: number of living mice,"Sarcoma 180 [1]; 10 weeks, 100 mg/Kg oral, control 1",6
same,N: number of living mice,"Sarcoma 180 [2]; 0 weeks, control 6",6
same,carcinostatic activity (in words),Sarcoma 180 [2],no substantial carcinostatic activity
same,N: number of living mice,"Sarcoma 180 [2]; 2 weeks, control 6",6
same,D: average diameter of tumor,"Sarcoma 180 [2]; 2 weeks, control 10.8",7.7 mm
same,N: number of living mice,"Sarcoma 180 [2]; 4 weeks, control 6",6
same,D: average diameter of tumor,"Sarcoma 180 [2]; 4 weeks, control 16.6",14.8 mm
same,N: number of living mice,"Sarcoma 180 [2]; 6 weeks, control 6",6
same,D: average diameter of tumor,"Sarcoma 180 [2]; 6 weeks, control 20.3",14.4 mm
same,N: number of living mice,"Sarcoma 180 [2]; 8 weeks, control 4",3
same,D: average diameter of tumor,"Sarcoma 180 [2]; 8 weeks, control 31.2",30.2 mm
same,N: number of living mice,"Sarcoma 180 [2]; 10 weeks, control 1",2
same,D: average diameter of tumor,"Sarcoma 180 [2]; 10 weeks, control 40.5",31.6 mm
same,Swelling Ratio (average value ± standard variation),"adjuvant arthritis; 15 days, control 84.4 ± 9.0",65.2 ± 5.9%
same,Swelling Ratio (average value ± standard variation),"adjuvant arthritis; 18 days, control 103.2 ± 9.7",69.3 ± 7.1%
same,Swelling Ratio (average value ± standard variation),"adjuvant arthritis; 21 days, control 107.5 ± 13.3",80.7 ± 9.6%
